Laboratory results reported in patent publication US9751851B2, “Molecules and compositions that inhibit gram negative bacteria and their uses” (THE TRUSTEES OF PRINCETON UNIVERSITY, priority 2013, dated 2017).
Read-outs that look alike come from different tables or passages of the source.

Key:
[1] = tested on: wild-type P. aeruginosa PA14; assay: microbe, parasite or virus in culture; assay type: cell-based; conditions: for inhibition at 100 µM / Efficacy (%): reduction of pyocyanin vs WT P. aeruginosa PA14: 0% = WT level, 100% = background medium; for IC50: read-out: IC50 for inhibition of pyocyanin production; for inhibition of pyocyanin production (in words): wild-type P. aeruginosa PA14, end point assays at 100 μM
Experimental: Methods. The oxidized form of pyocyanin imparts a green color to P. aeruginosa cultures, making the production of pyocyanin convenient to monitor by UV/Vis absorbance. Overnight P. aeruginosa cultures were subcultured into 5 mL fresh medium at 1:1000 dilution. Synthetic compounds were assayed at 100 μM for end point assays and at concentrations ranging from 200 nM to 200 μM for titrations following 17 hr of aerobic growth with shaking at 37° C. Cells were separated from culture fluids via centrifugation at 13,000 rpm for 15 min. Culture fluids were passed through 0.22 μm syringe driven filters (Millipore). Cell-free culture fluids were analyzed for pyocyanin using wavelength scans on a Beckman Coulter DU-800 spectrophotometer from 200 nm to 800 nm 695 nm was chosen for graphical representation. Titration data were fit with a variable-slope sigmoidal dose-response curve using GraphPad Prism to determine the IC50 values.
The compounds of the first library were assayed in wild-type (WT) P. aeruginosa PA14. Pyocyanin was used as a read-out for quorum sensing activity based on its absorbance at 695 nm. The efficacy of the compounds at reducing pyocyanin levels was calculated with respect to WT levels of pyocyanin, where WT levels of pyocyanin would lead to a 0% efficacy, and an absorbance equal to the background medium would lead to a 100% efficacy. Agonists that increase pyocyanin production have negative efficacy values.

[2] = tested on: P. aeruginosa PA14; assay: Growth of P. aeruginosa monitored by absorbance at 600 nm; assay type: cell-based
[3] = Pseudomonas aeruginosa, PA14, 17 h, read-out: Efficacy (%), Table 3
[4] = Pseudomonas aeruginosa, PA14, 17 h, read-out: Efficacy (%), Table 4
[5] = Pseudomonas aeruginosa, PA14, 17 h
[6] = WT P. aeruginosa PA14, 17 hr growth, titration

Row | Molecule | inhibition at 100 µM [1, 4] [%] | Efficacy (%) ([1]; Table 4) | further results
1 | O=C(COc1cccc(Br)c1)Nc1cc(C(F)(F)F)cc(C(F)(F)F)c1 [S60, 1-amino-3,5-bis(trifluoromethyl)-C6-3-bromophenoxyhybrid] |  |  | inhibition at 100 µM [1, 3]: 44%; Efficacy (%) ([1]; Table 3): 44 ± 8%
2 | O=C(COc1cccc(Br)c1)Nc1ccncc1C(F)(F)F [S62, 4-amino-3-trifluoromethylpyridine-C6-3-bromophenoxyhybrid] |  |  | inhibition at 100 µM [1, 3]: 15%; Efficacy (%) ([1]; Table 3): 15 ± 7%
3 | O=C(COc1ccccc1Br)Nc1ccnc(C(F)(F)F)c1 [S65, 4-amino-2-trifluoromethylpyridine-C6-2-bromophenoxyhybrid] | 94 | 94 ± 4 | 
4 | O=C(COc1cccc(I)c1)Nc1ccnc(C(F)(F)F)c1 [S66, 4-amino-2-trifluoromethylpyridine-C6-3-iodophenoxyhybrid] | 95 | 95 ± 3 | 
5 | O=C(COc1cccc(Cl)c1)Nc1ccnc(C(F)(F)F)c1 [S67, 4-amino-2-trifluoromethylpyridine-C6-3-chlorophenoxyhybrid] | 101 | 101 ± 3 | 
6 | O=C(COc1ccc(F)cc1)Nc1ccnc(C(F)(F)F)c1 [S68, 4-amino-2-trifluoromethylpyridine-C6-4-fluorophenoxyhybrid] | 54 | 54 ± 4 | 
7 | O=C(COc1ccccc1F)Nc1ccnc(C(F)(F)F)c1 [S69, 4-amino-2-trifluoromethylpyridine-C6-2-fluorophenoxyhybrid] | 78 ± 3 |  | 
8 | O=C(COc1ccc(F)cc1F)Nc1ccnc(C(F)(F)F)c1 [S70, 4-amino-2-trifluoromethylpyridine-C6-2,4-bisfluorophenoxyhybrid] | 49 ± 3 |  | 
9 | O=C(COc1c(F)cccc1F)Nc1ccnc(C(F)(F)F)c1 [S71, 4-amino-2-trifluoromethylpyridine-C6-2,6-bisfluorophenoxyhybrid] | 66 ± 4 |  | 
10 | O=C(COc1c(F)c(F)c(F)c(F)c1F)Nc1ccnc(C(F)(F)F)c1 [S72, 4-amino-2-trifluoromethylpyridine-C6-perfluorophenoxyhybrid] | 21 ± 14 |  | 
11 | O=C(COc1cccc([N+](=O)[O-])c1)Nc1ccnc(C(F)(F)F)c1 [S73, 4-amino-2-trifluoromethylpyridine-C6-3-nitrophenoxyhybrid] | 39 ± 36 |  | 
12 | N#Cc1cccc(OCC(=O)Nc2ccnc(C(F)(F)F)c2)c1 [S74, 4-amino-2-trifluoromethylpyridine-C6-3-cyanophenoxyhybrid] | 0.48 ± 7 |  | 
13 | O=C(COc1cccc(C(F)(F)F)c1)Nc1ccnc(C(F)(F)F)c1 [S75, 4-amino-2-trifluoromethylpyridine-C6-3-trifluoromethylphenoxyhybrid] | 59 ± 3 |  | 
14 | Cc1cccc(OCC(=O)Nc2ccnc(C(F)(F)F)c2)c1 [S76, 4-amino-2-trifluoromethylpyridine-C6-3-methylphenoxyhybrid] | 81 | 81 ± 4 | 
15 | O=C(COc1cccc(O)c1)Nc1ccnc(C(F)(F)F)c1 [S77, 4-amino-2-trifluoromethylpyridine-C6-3-hydroxyphenoxyhybrid] | 70 | 70 ± 7 | 
16 | O=C(COc1ccccc1O)Nc1ccnc(C(F)(F)F)c1 [S78, 4-amino-2-trifluoromethylpyridine-C6-2-hydroxyphenoxyhybrid] | 95 | 95 ± 4 | 
17 | O=C(CSc1cccc(F)c1)Nc1ccnc(C(F)(F)F)c1 [S79, 4-amino-2-trifluoromethylpyridine-C6-3-fluoroarylsulfide hybrid] | 94 | 94 ± 4 | 
18 | O=C(CNc1cccc(F)c1)Nc1ccnc(C(F)(F)F)c1 [S80, 4-amino-2-trifluoromethylpyridine-C6-3-fluoroaniline hybrid] | 100 | 100 ± 4 | 
19 | O=C(CCCCC#Cc1cccc(F)c1)Nc1ccnc(C(F)(F)F)c1 [S82, 7-(3-fluorophenyl)-N-(2-(trifluoromethyl)pyridin-4-yl)hept-6-ynamide] | 97 | 97 ± 4 | 
20 | O=C(CCCCCCc1cccc(F)c1)Nc1ccnc(C(F)(F)F)c1 [S83, 7-(3-fluorophenyl)-N-(2-(trifluoromethyl)pyridin-4-yl)heptanamide] | 96 | 96 ± 4 | 
21 | CCCCCCCCCNC(=O)CC(=O)c1ccccc1 [V-06-018, reference compound] |  |  | IC50 [1, 5]: 18 µM
22 | CCCCCCCCCC(=O)CC(=O)Nc1ccncc1 [compound 14, 3OC12-4-aminopyridine] |  |  | inhibition at 100 µM ([1]; Pseudomonas aeruginosa, PA14, 17 h, read-out: Efficacy (%), Table 1, negative = agonist): 63 ± 2%; IC50 [1, 5]: 0.16 µM
23 | CCCCCCCCCCCC(=O)Nc1ccnc(F)c1 [compound 15, C12-4-amino-2-fluoropyridine] |  |  | inhibition at 100 µM ([1]; Pseudomonas aeruginosa, PA14, 17 h, read-out: Efficacy (%), Table 2, negative = agonist): 70%; Efficacy (%) ([1]; Table 2, negative = agonist): 70 ± 2%
24 | O=C(COc1cccc(F)c1)Nc1ccnc(C(F)(F)F)c1 [compound 17, 4-amino-2-trifluoromethylpyridine-C6-3-fluorophenoxyhybrid] | 103 | 103 ± 3 | inhibition of pyocyanin production (in words) [1]: highly effective at blocking pyocyanin production
25 | O=C(CCCCCCCCCCN=C=S)CC(=O)NC1CCOC1=O (centres unmarked) [itc-13, reference compound] |  |  | IC50 [1, 6]: 56 µM
26 | O=C(CCCOc1cccc(Br)c1)N[C@H]1CCOC1=O [mBL] |  |  | inhibition of pyocyanin production (in words) [1]: most effective inhibitor of pyocyanin production
27 | O=C(CCCOc1cccc(Cl)c1)NC1CCSC1=O (centres unmarked) [mCTL] |  |  | IC50 [1, 6]: 9 µM; inhibition of pyocyanin production (in words) [1]: potent inhibition of pyocyanin; effect on P. aeruginosa PA14 growth [2]: not affecting P. aeruginosa PA14 growth
28 | chlorothiolactone [CTL, reference compound] |  |  | inhibition of pyocyanin production (in words) [1]: Neither CL nor CTL inhibited pyocyanin production
